Experimental data taken from patent US11369593B2 (Texas Tech University System, priority 2017, dated 2022).

Experiments:
[1] = tested on: PC12 cells; experiment: Serum starvation-induced apoptosis in PC12 cells, cell viability; type: cell-based; conditions: serum starvation-induced apoptosis, PC12 cells; for viability at 1 µM / viability at 3 µM / viability at 10 µM / viability at 30 µM: Rattus norvegicus, PC-12; for viability at 1 µM: read-out: % Viability 1 μM; for viability at 3 µM: read-out: % Viability 3 μM; for viability at 10 µM: read-out: % Viability 10 μM; for viability at 30 µM: read-out: % Viability 30 μM
[2] = tested on: PC12 cells; experiment: Etoposide-induced apoptosis in PC12 cells, cell viability; type: cell-based; conditions: for % Viability 1 μM / viability at 1 µM: 1 μM compound; for % Viability 1 μM / % Viability 3 μM / % Viability 10 μM / % Viability 30 μM / viability at 1 µM / viability at 3 µM / viability at 10 µM / viability at 30 µM / viability at 0.1 µM / viability at 0.3 µM / % Viability 0.1 μM / % Viability 0.3 μM: etoposide-induced apoptosis, PC12 cells; for % Viability 3 μM / viability at 3 µM: 3 μM compound; for % Viability 10 μM / viability at 10 µM: 10 μM compound; for % Viability 30 μM / viability at 30 µM: 30 μM compound; for viability at 1 µM / viability at 3 µM / viability at 10 µM / viability at 30 µM / viability at 0.1 µM / viability at 0.3 µM: Rattus norvegicus, PC-12; for viability at 1 µM: read-out: % Viability 1 μM; for viability at 3 µM: read-out: % Viability 3 μM; for viability at 10 µM: read-out: % Viability 10 μM; for viability at 30 µM: read-out: % Viability 30 μM; for protective activity in WT PC12 etoposide assay: WT PC12 cells; for viability at 0.1 µM / % Viability 0.1 μM: 0.1 μM compound, vehicle 52.1 ± 7.32; for viability at 0.3 µM / % Viability 0.3 μM: 0.3 μM compound
[3] = 1 μM compound, vehicle 55.04 ± 8.99

2-chloroethyl 6-(4-fluorobenzylamino)-2-aminopyridin-3-ylcarbamate [NK-23-1]
% Viability 1 μM [1, 3]: 84.07 ± 11.85%
% Viability 3 μM ([1]; 3 μM compound): 83.62 ± 5.88%
% Viability 10 μM ([1]; 10 μM compound): 100.15 ± 15.84%
% Viability 30 μM ([1]; 30 μM compound): 106.47 ± 15.46%
% Viability 1 μM [2]: 54.01 ± 13.43%
% Viability 3 μM [2]: 53.92 ± 6.37%
% Viability 10 μM [2]: 41.79 ± 4.38%
% Viability 30 μM [2]: 40.77 ± 6.98%

C=CCOC(=O)Nc1ccc(NCc2ccc(Cl)cc2)nc1N [JG-4-5]
viability at 1 µM [1, 3]: 72.3 ± 1.45%
viability at 3 µM ([1]; 3 μM compound): 95.2 ± 2.41%
viability at 10 µM ([1]; 10 μM compound): 70.2 ± 9.45%
viability at 30 µM ([1]; 30 μM compound): 71.1 ± 8.61%
viability at 1 µM [2]: 87.2 ± 19.8%
viability at 3 µM [2]: 79.7 ± 7.48%
viability at 10 µM [2]: 84.3 ± 13.2%
viability at 30 µM [2]: 80.4 ± 24.1%

CCOC(=O)Nc1ccc(NCc2ccc(C)cc2)cc1N [JG-32-3, Ethyl (2-amino-4-((4-methylbenzyl)amino)phenyl)carbamate]
viability at 1 µM [1, 3]: 62.6 ± 16.7%
viability at 3 µM ([1]; 3 μM compound): 79.54 ± 0.6%
viability at 10 µM ([1]; 10 μM compound): 77.9 ± 1.34%
viability at 30 µM ([1]; 30 μM compound): 71.33 ± 0.03%
viability at 1 µM [2]: 110 ± 39.4%
viability at 3 µM [2]: 136 ± 30.1%
viability at 10 µM [2]: 123 ± 23.2%
viability at 30 µM [2]: 98 ± 22.9%
protective activity in WT PC12 etoposide assay [2]: significant increase in potency

COC(=O)Nc1ccc(NCc2ccc(F)cc2)nc1N [NK-3-1, Methyl 6-(4-fluorobenzylamino)-2-aminopyridin-3-ylcarbamate]
viability at 1 µM [1, 3]: 76.9 ± 10.2%
viability at 3 µM ([1]; 3 μM compound): 79.1 ± 8.28%
viability at 10 µM ([1]; 10 μM compound): 72.2 ± 9.15%
viability at 30 µM ([1]; 30 μM compound): 72.3 ± 16.4%
viability at 1 µM [2]: 74.5 ± 33.1%
viability at 3 µM [2]: 96.6 ± 14.6%
viability at 10 µM [2]: 82.2 ± 23.4%
viability at 30 µM [2]: 63.3 ± 27.4%

CC(C)COC(=O)Nc1ccc(NCc2ccc(F)cc2)nc1N [NK-8-1, Isobutyl 6-(4-fluorobenzylamino)-2-aminopyridin-3-ylcarbamate]
viability at 1 µM [1, 3]: 67.9 ± 12.6%
viability at 3 µM ([1]; 3 μM compound): 77.4 ± 11.7%
viability at 10 µM ([1]; 10 μM compound): 89.7 ± 6.68%
viability at 30 µM ([1]; 30 μM compound): 88.3 ± 10.8%
viability at 1 µM [2]: 57.9 ± 22.4%
viability at 3 µM [2]: 62.9 ± 2.98%
viability at 10 µM [2]: 46.5 ± 3.36%
viability at 30 µM [2]: 56.1 ± 0.67%

CCOC(=O)Nc1ccc(NCc2cccc(C(F)(F)F)c2)nc1N [NK-16-3, Ethyl 6-(3-(trifluoromethyl)benzylamino)-2-aminopyridin-3-ylcarbamate]
viability at 1 µM [1, 3]: 83.6 ± 14.3%
viability at 3 µM ([1]; 3 μM compound): 80.7 ± 8.11%
viability at 10 µM ([1]; 10 μM compound): 86.9 ± 9.07%
viability at 30 µM ([1]; 30 μM compound): 84.2 ± 16.1%
viability at 1 µM [2]: 59.9 ± 13.8%
viability at 3 µM [2]: 68.2 ± 7.5%
viability at 10 µM [2]: 60.4 ± 19.4%
viability at 30 µM [2]: 46.4 ± 12.8%

COC(=O)Nc1ccc(NCc2cccc(C(F)(F)F)c2)nc1N [NK-16-4, Methyl 6-(3-(trifluoromethyl)benzylamino)-2-aminopyridin-3-ylcarbamate]
viability at 1 µM [1, 3]: 92.1 ± 10.2%
viability at 3 µM ([1]; 3 μM compound): 88 ± 8.56%
viability at 10 µM ([1]; 10 μM compound): 97.8 ± 9.35%
viability at 30 µM ([1]; 30 μM compound): 97.6 ± 1800%
viability at 1 µM [2]: 46.7 ± 3.26%
viability at 3 µM [2]: 41.3 ± 10.1%
viability at 10 µM [2]: 28.6 ± 2.14%
viability at 30 µM [2]: 37 ± 3.91%

C=CCOC(=O)Nc1ccc(NCc2cccc(C(F)(F)F)c2)nc1N [NK-16-6, Allyl 6-(3-(trifluoromethyl)benzylamino)-2-aminopyridin-3-ylcarbamate]
viability at 1 µM [1, 3]: 77.1 ± 12.1%
viability at 3 µM ([1]; 3 μM compound): 87.8 ± 10%
viability at 10 µM ([1]; 10 μM compound): 92 ± 13%
viability at 30 µM ([1]; 30 μM compound): 74.5 ± 11.9%
viability at 1 µM [2]: 78 ± 37.1%
viability at 3 µM [2]: 107 ± 2.3%
viability at 10 µM [2]: 101 ± 9.58%
viability at 30 µM [2]: 87.6 ± 21.9%
protective activity in WT PC12 etoposide assay [2]: provides greater activity

CCOC(=O)Nc1ccc(NCc2cc(C(F)(F)F)cc(C(F)(F)F)c2)nc1N [NK-17-3, Ethyl (2-amino-6-((3,5-bis(trifluoromethyl)benzyl)amino)pyridin-3-yl)carbamate]
viability at 1 µM [1, 3]: 81.8 ± 8.69%
viability at 3 µM ([1]; 3 μM compound): 72.8 ± 12.4%
viability at 10 µM ([1]; 10 μM compound): 78.5 ± 6.27%
viability at 30 µM ([1]; 30 μM compound): 57.9 ± 9.54%
viability at 1 µM [2]: 63.7 ± 22.7%
viability at 3 µM [2]: 75.7 ± 6.39%
viability at 10 µM [2]: 68.1 ± 9.52%
viability at 30 µM [2]: 56 ± 6.26%

CC(Cl)OC(=O)Nc1ccc(NCc2ccc(F)cc2)nc1N (centres unmarked) [NK-21-1, 1-chloroethyl 6-(4-fluorobenzylamino)-2-aminopyridin-3-ylcarbamate]
viability at 1 µM [1, 3]: 74.2 ± 11.5%
viability at 3 µM ([1]; 3 μM compound): 75.6 ± 13.4%
viability at 10 µM ([1]; 10 μM compound): 91.7 ± 6.31%
viability at 30 µM ([1]; 30 μM compound): 84 ± 13.8%
viability at 1 µM [2]: 69.5 ± 13.2%
viability at 3 µM [2]: 88.9 ± 21.5%
viability at 10 µM [2]: 84.3 ± 32.2%
viability at 30 µM [2]: 84.8 ± 33.7%

Nc1ccc(N(Cc2ccc(F)cc2)C(=O)OCc2ccccc2)cc1N [NK-22-6]
viability at 1 µM [1, 3]: 68.1 ± 8.86%
viability at 3 µM ([1]; 3 μM compound): 82.5 ± 10.5%
viability at 10 µM ([1]; 10 μM compound): 74.5 ± 8.48%
viability at 30 µM ([1]; 30 μM compound): 37.4 ± 4.98%
viability at 1 µM [2]: 69.1 ± 20.1%
viability at 3 µM [2]: 100 ± 5.4%
viability at 10 µM [2]: 98.9 ± 7.93%
viability at 30 µM [2]: 78.6 ± 23%

CCCOC(=O)Nc1ccc(NCc2ccc(F)cc2)cc1N [NK-30-2, Propyl (2-amino-4-((4-fluorobenzyl)amino)phenyl)carbamate]
viability at 1 µM [1, 3]: 70.4 ± 3.39%
viability at 3 µM ([1]; 3 μM compound): 78.3 ± 7.18%
viability at 10 µM ([1]; 10 μM compound): 84.6 ± 4.75%
viability at 30 µM ([1]; 30 μM compound): 76.2 ± 1.61%
viability at 1 µM [2]: 54.1 ± 9.34%
viability at 3 µM [2]: 55.6 ± 7.41%
viability at 10 µM [2]: 61.6 ± 4.82%
viability at 30 µM [2]: 61.6 ± 18.1%

CCOC(=O)Nc1ccc(NCc2ccc(F)cc2F)nc1N [NK-64-3, Ethyl (2-amino-6-((2,4-difluorobenzyl)amino)pyridin-3-yl)carbamate]
viability at 0.1 µM [2]: 84 ± 21.9%
viability at 0.3 µM [2]: 93 ± 14.1%
viability at 1 µM [2]: 91 ± 19.8%
viability at 3 µM [2]: 78 ± 16.8%
viability at 10 µM [2]: 89.2 ± 4.4%
viability at 30 µM [2]: 90.7 ± 12.7%

CCOC(=O)Nc1ccc(NCc2ccc(C)cc2C)nc1N [NK-65-3, Ethyl (2-amino-6-((2,4-dimethylbenzyl)amino)pyridin-3-yl)carbamate]
viability at 0.1 µM [2]: 55.5 ± 11.3%
viability at 0.3 µM [2]: 56.9 ± 18.4%
viability at 1 µM [2]: 61.8 ± 9.82%
viability at 3 µM [2]: 87.9 ± 11.4%
viability at 10 µM [2]: 85.7 ± 13.2%
viability at 30 µM [2]: 65.7 ± 19%

CCOC(=O)Nc1ccc(NCc2cccc(C)c2)nc1N [NK-66-3, Ethyl (2-amino-6-((3-methylbenzyl)amino)pyridin-3-yl)carbamate]
viability at 0.1 µM [2]: 94.7 ± 25.8%
viability at 0.3 µM [2]: 110 ± 11.3%
viability at 1 µM [2]: 101 ± 17.4%
viability at 3 µM [2]: 82.3 ± 31.4%
viability at 10 µM [2]: 86.1 ± 26.9%
viability at 30 µM [2]: 107 ± 9.4%

CCOC(=O)Nc1ccc(NCc2cccc(OC)c2)nc1N [NK-67-3, Ethyl (2-amino-6-((3-methoxybenzyl)amino)pyridin-3-yl)carbamate]
viability at 0.1 µM [2]: 59.2 ± 3.98%
viability at 0.3 µM [2]: 48.6 ± 9.49%
viability at 1 µM [2]: 82.8 ± 19.8%
viability at 3 µM [2]: 87.5 ± 15%
viability at 10 µM [2]: 70.1 ± 3.36%
viability at 30 µM [2]: 63.8 ± 14%

Ethyl (6-((4-fluorobenzyl)amino)-4-methylpyridin-3-yl)carbamate [NK-48-3]
% Viability 0.1 μM [2]: 54.78 ± 2.77%
% Viability 0.3 μM [2]: 57.46 ± 4.02%
% Viability 1 μM [2]: 57.03 ± 1.81%
% Viability 3 μM [2]: 53.80 ± 1.98%
% Viability 10 μM [2]: 57.06 ± 4.28%
% Viability 30 μM [2]: 63.25 ± 3.32%

Hexyl (2-amino-6-((4-fluorobenzyl)amino)pyridin-3-yl)carbamate [NK-42-1]
% Viability 0.1 μM [2]: 60.08 ± 3.34%
% Viability 0.3 μM [2]: 59.19 ± 4.95%
% Viability 1 μM [2]: 87.30 ± 18.26%
% Viability 3 μM [2]: 78.46 ± 11.29%
% Viability 10 μM [2]: 85.14 ± 11.29%
% Viability 30 μM [2]: 78.95 ± 13.17%
